≈ marks a conversion by molar mass, not a printed value.
Key:
[1] = test system: S. epidermidis ATCC 12228; assay: MIC, microdilution method (9.1); assay type: cell-based, Staphylococcus epidermidis; details: Staphylococcus epidermidis, ATCC12228, read after 18 h, read-out: MIC
Description: (§1) The microdilution method recommended by the Clinical and Laboratory Standard Institute [M07-A8, Vol. 29, No. 2] was used. The activity of indolic compounds was tested against 29 bacterial strains belonging to 17 different species and 12 different genera (Staphylococcus, Streptococcus, Enterococcus, Listeria, Bacillus, Haemophilus, Escherichia, Klebsiella, Enterobacter, Serratia, Pseudomonas, and Acinetobacter). Bacterial inocula were prepared in Mueller Hinton broth (MH2, bioMérieux, Marcy L'Etoile, France), supplemented with 10% sheep blood for fastidious species (i.e., Streptococcus pneumoniae and Haemophilus influenzae). They were dispensed in 96 well microtiter plates (5×10^5 CFU/ml of final inoculum). Indolic compounds were added to the wells as to obtain two-fold serial concentrations (0.50-128 mg/L of final concentrations). Plates were incubated at 37° C. in ambient air, or at 37° C. in 5% CO2 enriched atmosphere for fastidious species. […] Drug-free cultures served as growth controls. Cultures receiving gentamicin, ciprofloxacin or cefotaxime served as positive controls.

[2] = test system: S. epidermidis CIP 103627; assay: MIC, microdilution method (9.1); assay type: cell-based, Staphylococcus epidermidis; details: Staphylococcus epidermidis, CIP103627, read after 18 h, read-out: MIC
Description: as §1

S. epidermidis CIP 81.55 = assay: MIC, microdilution method (9.1); assay type: cell-based, Staphylococcus epidermidis; details: Staphylococcus epidermidis, CIP81, read after 18 h, read-out: MIC
Description: as §1

[3] = test system: HCT116 (human colon tumor); assay: In vitro cytotoxicity; assay type: cell-based; details: HCT-116, HCT116, from 100 μM to 0.005 μM in DMSO, duplicate
[4] = test system: Listeria innocua CIP 80.11; assay: MIC, microdilution method (9.1); assay type: cell-based; details: CIP80, 18 h, read-out: MIC
Description: as §1

[5] = test system: Enterobacter cloacae ATCC13047; assay: MIC, microdilution method (9.1); assay type: cell-based; details: 18 h
Description: as §1

[6] = test system: Bacillus subtilis CIP 5262; assay: MIC, microdilution method (9.1); assay type: cell-based; details: CIP5262, 18 h, read-out: MIC
Description: as §1

[7] = test system: Haemophilus influenzae ATCC 49766; assay: MIC, microdilution method (9.1); assay type: cell-based; details: ATCC49766; Haemophilus influenzae ATCC 49766; 10% sheep blood, 5% CO2; 18 h; read-out: MIC
Description: as §1

[8] = test system: Escherichia coli ATCC 25922; assay: MIC, microdilution method (9.1); assay type: cell-based; details: ATCC25922, 18 h
Description: as §1

[9] = test system: Klebsiella pneumoniae API ATCC 35657; assay: MIC, microdilution method (9.1); assay type: cell-based; details: ATCC35657, 18 h, read-out: MIC
Description: as §1

S. pneumoniae ATCC 49619 = assay: MIC, microdilution method (9.1); assay type: cell-based; details: Streptococcus pneumoniae, ATCC49619, 10% sheep blood, 5% CO2, 18 h
Description: as §1

[10] = test system: Serratia marcescens CIP 103551; assay: MIC, microdilution method (9.1); assay type: cell-based; details: CIP103551, 18 h
Description: as §1

[11] = test system: Acinetobacter baumanii ATCC 19606; assay: MIC, microdilution method (9.1); assay type: cell-based; details: Acinetobacter baumannii, ATCC19606, 18 h, read-out: MIC
Description: as §1

[12] = test system: Pseudomonas aeruginosa CIP 5933; assay: MIC, microdilution method (9.1); assay type: cell-based; details: CIP5933, 18 h, read-out: MIC
Description: as §1

[13] = test system: S. aureus CIP 65.25 (MRSA); assay: MIC, microdilution method (9.1); assay type: cell-based, Staphylococcus aureus; details: Staphylococcus aureus, read after 18 h, read-out: MIC
Description: as §1

S. aureus CIP 65.6 = assay: MIC, microdilution method (9.1); assay type: cell-based, Staphylococcus aureus; details: Staphylococcus aureus, CIP65, read after 18 h, read-out: MIC
Description: as §1

S. aureus ATCC 9144 = assay: MIC, microdilution method (9.1); assay type: cell-based, Staphylococcus aureus; details: Staphylococcus aureus, ATCC9144, read after 18 h, read-out: MIC
Description: as §1

S. aureus ATCC 25923 = assay: MIC, microdilution method (9.1); assay type: cell-based, Staphylococcus aureus; details: Staphylococcus aureus, ATCC25923, read after 18 h, read-out: MIC
Description: as §1

[14] = test system: S. aureus ATCC 33592 (MRSA); assay: MIC, microdilution method (9.1); assay type: cell-based, Staphylococcus aureus; details: Staphylococcus aureus, read after 18 h, read-out: MIC
Description: as §1

S. aureus CIP 103428 = assay: MIC, microdilution method (9.1); assay type: cell-based, Staphylococcus aureus; details: Staphylococcus aureus, CIP103428, read after 18 h, read-out: MIC
Description: as §1

S. aureus SA-1199B = assay: MIC, microdilution method (9.1); assay type: cell-based, Staphylococcus aureus; details: Staphylococcus aureus, SA1199B, 18 h
Description: as §1

[15] = test system: S. aureus ATCC 106414 (VISA); assay: MIC, microdilution method (9.1); assay type: cell-based, Staphylococcus aureus; details: Staphylococcus aureus, read after 18 h, read-out: MIC
Description: as §1

S. aureus ATCC 6538 = assay: MIC, microdilution method (9.1); assay type: cell-based, Staphylococcus aureus; details: Staphylococcus aureus, ATCC6538, read after 18 h, read-out: MIC
Description: as §1

S. aureus ATCC 29213 = assay: MIC, microdilution method (9.1); assay type: cell-based, Staphylococcus aureus; details: Staphylococcus aureus, ATCC29213, read after 18 h, read-out: MIC
Description: as §1

[16] = test system: MRC5 (human lung fibroblast); assay: In vitro cytotoxicity; assay type: cell-based; details: read-out: % of cellular growth inhibition; for inhibition at 10 µM: 10^−5 M; for inhibition at 1 µM: 10^−6 M
Description: (§2) In vitro cytotoxicity was assayed on three cell lines—KB (human mouth carcinoma), MCR5 (human lung fibroblast) and HCT116 (human colon tumor). Results are presented in table IV as % of cellular growth inhibition in presence of 10^−5 M and 10^−6 M of the tested bis-indolic derivatives.

[17] = test system: HCT116 (human colon tumor); assay: In vitro cytotoxicity; assay type: cell-based; details: read-out: % of cellular growth inhibition; for inhibition at 10 µM: HCT-116, 10^−5 M; for inhibition at 1 µM: HCT-116, 10^−6 M
Description: as §2

[18] = test system: KB (human mouth carcinoma); assay: In vitro cytotoxicity; assay type: cell-based; details: read-out: % of cellular growth inhibition; for inhibition at 10 µM: 10^−5 M; for inhibition at 1 µM: 10^−6 M
Description: as §2

[19] = test system: S. agalactiae (group B) ATCC 12400; assay: MIC, microdilution method (9.1); assay type: cell-based, Streptococcus agalactiae; details: Streptococcus agalactiae, ATCC12400, 18 h, read-out: MIC
Description: as §1

[20] = test system: S. pyogenes (group A) CIP 104226; assay: MIC, microdilution method (9.1); assay type: cell-based, Streptococcus pyogenes; details: Streptococcus pyogenes, CIP104226, 18 h, read-out: MIC
Description: as §1

E. faecium CIP 54.32 = assay: MIC, microdilution method (9.1); assay type: cell-based, Enterococcus faecium; details: Enterococcus faecium, CIP54, 18 h, read-out: MIC
Description: as §1

E. faecalis ATCC 29212 = assay: MIC, microdilution method (9.1); assay type: cell-based, Enterococcus faecalis; details: Enterococcus faecalis, ATCC29212, 18 h, read-out: MIC
Description: as §1

S. mitis CIP 103335 = assay: MIC, microdilution method (9.1); assay type: cell-based, Streptococcus mitis; details: Streptococcus mitis, CIP103335, 18 h, read-out: MIC
Description: as §1

S. pneumoniae ATCC 6303 = assay: MIC, microdilution method (9.1); assay type: cell-based, Streptococcus pneumoniae; details: Streptococcus pneumoniae, ATCC6303, 10% sheep blood, 5% CO2, 18 h, read-out: MIC
Description: as §1

SMILES	MIC [1]	MIC [2]	MIC (S. epidermidis CIP 81.55)	MIC [13]	MIC (S. aureus CIP 65.6)	MIC (S. aureus ATCC 9144)	MIC (S. aureus ATCC 25923)	MIC [14]	MIC (S. aureus CIP 103428)	MIC (S. aureus SA-1199B)	MIC [15]	MIC (S. aureus ATCC 6538)	MIC (S. aureus ATCC 29213)	inhibition at 10 µM [16]	inhibition at 1 µM [16]	inhibition at 10 µM [17]	inhibition at 1 µM [17]	inhibition at 10 µM [18]	inhibition at 1 µM [18]	melting point	also measured
CC(C)(C)OC(=O)NCC(NC(=O)c1c[nH]c2ccc(Cl)cc12)c1c[nH]c2ccc(Cl)cc12 (centres unmarked) [Compound 6a, tert-Butyl 2-(5-chloro-1H-indol-3-yl)-2-(5-chloro-1H-indole-3-carboxamido)ethylcarbamate]	4 µg/mL (≈ 8.21 µM)	4 µg/mL (≈ 8.21 µM)	4 µg/mL (≈ 8.21 µM)	4 µg/mL (≈ 8.21 µM)	4 µg/mL (≈ 8.21 µM)	4 µg/mL (≈ 8.21 µM)	4 µg/mL (≈ 8.21 µM)	4 µg/mL (≈ 8.21 µM)	4 µg/mL (≈ 8.21 µM)	4 µg/mL (≈ 8.21 µM)	4 µg/mL (≈ 8.21 µM)	4 µg/mL (≈ 8.21 µM)	≤ 2 µg/mL	82 ± 4%	0%	80 ± 9%	0%	87 ± 6%	4%	–	IC50 ([3]; first value): 4.35 µM; IC50 ([3]; second value): 3.79 µM; MIC [4]: > 128 µg/mL; MIC [5]: > 128 µg/mL; MIC [6]: 64 µg/mL (≈ 131 µM); MIC [7]: > 128 µg/mL; MIC [8]: > 128 µg/mL; MIC [9]: > 128 µg/mL; MIC (S. pneumoniae ATCC 49619): 64 µg/mL (≈ 131 µM); MIC [10]: > 128 µg/mL; MIC [11]: > 128 µg/mL; MIC [12]: > 128 µg/mL; MIC [19]: 64 µg/mL (≈ 131 µM); MIC [20]: 64 µg/mL (≈ 131 µM); MIC (E. faecium CIP 54.32): > 128 µg/mL; MIC (E. faecalis ATCC 29212): > 128 µg/mL; MIC (S. mitis CIP 103335): 64 µg/mL (≈ 131 µM); MIC (S. pneumoniae ATCC 6303): 32 µg/mL (≈ 65.7 µM)
COC(=O)C(NC(=O)c1c[nH]c2ccc(Br)cc12)c1c[nH]c2ccc(Br)cc12 (centres unmarked) [Compound 11, Methyl 2-(5-bromo-1H-indol-3-yl)-2-(5-bromo-1H-indole-3-carboxamido)acetate]	4 µg/mL (≈ 7.92 µM)	4 µg/mL (≈ 7.92 µM)	4 µg/mL (≈ 7.92 µM)	4 µg/mL (≈ 7.92 µM)	4 µg/mL (≈ 7.92 µM)	4 µg/mL (≈ 7.92 µM)	4 µg/mL (≈ 7.92 µM)	4 µg/mL (≈ 7.92 µM)	4 µg/mL (≈ 7.92 µM)	4 µg/mL (≈ 7.92 µM)	4 µg/mL (≈ 7.92 µM)	4 µg/mL (≈ 7.92 µM)	4 µg/mL (≈ 7.92 µM)	28 ± 9%	0%	51 ± 5%	0%	51 ± 1%	0%	126 °C	–
O=C(NC(CO)c1c[nH]c2ccc(Br)cc12)c1c[nH]c2ccc(Br)cc12 (centres unmarked) [Compound 13, 5-Bromo-N-(1-(5-bromo-1H-indol-3-yl)-2-hydroxyethyl)-1H-indole-3-carboxamide]	4 µg/mL (≈ 8.38 µM)	4 µg/mL (≈ 8.38 µM)	4 µg/mL (≈ 8.38 µM)	4 µg/mL (≈ 8.38 µM)	4 µg/mL (≈ 8.38 µM)	4 µg/mL (≈ 8.38 µM)	4 µg/mL (≈ 8.38 µM)	4 µg/mL (≈ 8.38 µM)	4 µg/mL (≈ 8.38 µM)	8 µg/mL (≈ 16.8 µM)	4 µg/mL (≈ 8.38 µM)	4 µg/mL (≈ 8.38 µM)	4 µg/mL (≈ 8.38 µM)	6 ± 1%	0%	12 ± 5%	0%	1 ± 4%	0%	155 °C	–
